# Experimental data as given in patent US9440969B2, “Compounds and methods for kinase modulation, and indications therefor” (PLEXXIKON INC., priority 2009, dated 2016).
# How the values were obtained:
# [1] = system: COLO205 colon adenocarcinoma (B-Raf V600E mutation); assay: COLO205 cell growth inhibition (ATPlite luminescence); assay type: cell-based; details: Homo sapiens, COLO 205, 72 h, COLO205 cells, incubated 3 days with compound
# Procedure: (§1) Compounds are assessed in a variety of cell based assays. For example human cell lines with B-Raf V600E mutation (A375 melanoma, SKMEL3 melanoma, and COLO205 colon adenocarcinoma), as well as tumorigenic cell lines with wild-type B-RAF (SW620 colon adenocarcinoma) or with Ras mutations (SKMEL2 melanoma and IPC298 melanoma). Similar assays may be used to assess additional tumorigenic cell lines with Ras mutations, including, but not limited to, M202, M207, M243, M244, M296, S117, HCT116, HCT15, DLD1, MiaPaCa, A549, NCI-H23, NCI-H460, HOP62, MDA-MB231, Hs-578T, HL60, MOLT-4, and CCRF-CEM.
# (§2) On day 1, cells are counted, then centrifuged in a conical tube for 5 minutes at 1000 rpm. The supernatant is removed and cells are re-suspended as follows: • SW620 (ATCC catalog #CCL-27): resuspend in Leibovitz's L-15 medium, 2 mM L-glutamine, 10% fetal bovine serum to 6×10^4 cells/mL. • A375 (ATCC catalog #CRL-1619): resuspend in Dulbecco's modified Eagle's medium, 4 mM L-glutamine, 4.5 g/L D-glucose, 10% fetal bovine serum to 6×10^4 cells/mL. • COLO205 (ATCC catalog #CCL-222): resuspend in RPMI 1640, 2 mM L-glutamine, 1.5 g/L sodium bicarbonate, 4.5 g/L D-glucose, 10 mM HEPES, 1.0 mM sodium pyruvate, 10% fetal bovine serum to 6×10^4 cells/mL. • SKMEL2 (ATCC catalog #HTB-68): resuspend in Minimum Eagle essential medium, 2 mM L-glutamine, 1.5 g/L sodium bicarbonate, 0.1 mM non-essential amino acids, 1.0 mM sodium pyruvate, 10% fetal bovine serum to 6×10^4 cells/mL. • SKMEL3 (ATCC catalog #HTB-69): resuspend in McCoy's 5A medium, 1.5 mM L-glutamine, 15% fetal bovine serum to 6×10^4 cells/mL. • IPC298 (DSMZ catalog #ACC 251): resuspend in RPMI 1640, 2 mM L-glutamine, 10% fetal bovine serum to 6×10^4 cells/mL.
# (§3) The cells are plated, 50 μL in each well of a 96-well dish (Corning 3610) and incubated at 37° C. in 5% CO2 overnight, cells plated to a final concentration of cells as follows:
# (§4) On day 2, compound at a maximum concentration of 5 mM is serially diluted 1:3 (e.g. 10 μL with 30 μL dimethyl sulfoxide) for a total of 8 point titration with DMSO as a control. A 1 μL aliquot of each dilution point and control is added to 249 μL growth media and 50 μL is added to a well containing cells, providing 10 μM compound at the maximum concentration point. The cells are incubated for 3 days at 37° C. in 5% CO2.
# (§5) On day 5, ATPlite 1 step Luminescence Assay System (Perkin Elmer #6016739) is brought to room temperature along with the cell cultures. ATPlite is added 25 μL to each well, shake for 2 minutes, and the cells are incubated at room temperature for 10 minutes, then luminescence is read on Safire reader. The measured luminescence correlates directly with cell number, such that the reading as a function of compound concentration is used to determine the IC50 value.
# (§6) It is understood that the results of these assays may vary as assay conditions are varied. Inhibition levels determined under the conditions described herein represent a relative activity for the compounds tested under the specific conditions employed. The cell based assays are likely to show variability due to the complexity of the system and the sensitivity thereof to any changes in the assay conditions. […] Results for compounds that are tested and show substantially no inhibition below the highest tested concentration are represented as “-” in the tables below. In some instances, the compounds were not tested in all of the assays, or assay results were not valid, as indicated by NA in the tables below.
# [2] = target: c-Raf-1 (Homo sapiens, UniProt P04049); assay: c-Raf-1 kinase activity assay (AlphaScreen, biotin-MEK1 substrate); details: 100 μM ATP, 100 nM biotin-MEK1, 45 minutes at room temperature; read-out: Biochemical activity (IC50 μM) c-Raf-1
# Sequence of c-Raf-1 (P04049 whole entry Y340D/Y341D, form open): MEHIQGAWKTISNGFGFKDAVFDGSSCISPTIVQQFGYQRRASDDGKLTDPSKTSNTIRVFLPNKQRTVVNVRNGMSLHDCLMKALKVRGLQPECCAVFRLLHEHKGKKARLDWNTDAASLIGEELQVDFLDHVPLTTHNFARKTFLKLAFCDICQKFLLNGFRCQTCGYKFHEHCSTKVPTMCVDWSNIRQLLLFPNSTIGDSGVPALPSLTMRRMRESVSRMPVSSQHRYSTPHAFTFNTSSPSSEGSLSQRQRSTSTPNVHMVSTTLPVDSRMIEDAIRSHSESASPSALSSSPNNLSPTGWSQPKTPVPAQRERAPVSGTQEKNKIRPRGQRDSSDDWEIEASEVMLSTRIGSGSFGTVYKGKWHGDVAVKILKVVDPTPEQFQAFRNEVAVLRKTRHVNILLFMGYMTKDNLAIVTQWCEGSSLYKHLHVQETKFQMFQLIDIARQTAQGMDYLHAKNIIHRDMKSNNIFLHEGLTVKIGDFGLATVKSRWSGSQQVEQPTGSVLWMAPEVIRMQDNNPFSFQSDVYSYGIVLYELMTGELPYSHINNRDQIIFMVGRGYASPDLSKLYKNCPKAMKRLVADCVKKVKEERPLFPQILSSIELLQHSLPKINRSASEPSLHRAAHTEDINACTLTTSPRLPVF
# Summary of the method: (§7)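 Each Raf enzyme (0.1 ng) phosphorylates 100 nM biotin-MEK1 in pH 7.0 HEPES with Mg2+/Mn2+, 100 μM ATP final, 45 min at room temperature. Phospho-MEK1/2 antibody with AlphaScreen beads is read after 3 h. IC50 comes from an 8-point dilution series.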
# [3] = target: B-Raf V600E (Homo sapiens, UniProt P15056, V600E); assay: B-Raf V600E kinase activity assay (AlphaScreen, biotin-MEK1 substrate); details: 100 μM ATP, 100 nM biotin-MEK1, 45 minutes at room temperature, read-out: Biochemical activity (IC50 μM) V600E
# Sequence of B-Raf V600E (P15056 whole entry V600E): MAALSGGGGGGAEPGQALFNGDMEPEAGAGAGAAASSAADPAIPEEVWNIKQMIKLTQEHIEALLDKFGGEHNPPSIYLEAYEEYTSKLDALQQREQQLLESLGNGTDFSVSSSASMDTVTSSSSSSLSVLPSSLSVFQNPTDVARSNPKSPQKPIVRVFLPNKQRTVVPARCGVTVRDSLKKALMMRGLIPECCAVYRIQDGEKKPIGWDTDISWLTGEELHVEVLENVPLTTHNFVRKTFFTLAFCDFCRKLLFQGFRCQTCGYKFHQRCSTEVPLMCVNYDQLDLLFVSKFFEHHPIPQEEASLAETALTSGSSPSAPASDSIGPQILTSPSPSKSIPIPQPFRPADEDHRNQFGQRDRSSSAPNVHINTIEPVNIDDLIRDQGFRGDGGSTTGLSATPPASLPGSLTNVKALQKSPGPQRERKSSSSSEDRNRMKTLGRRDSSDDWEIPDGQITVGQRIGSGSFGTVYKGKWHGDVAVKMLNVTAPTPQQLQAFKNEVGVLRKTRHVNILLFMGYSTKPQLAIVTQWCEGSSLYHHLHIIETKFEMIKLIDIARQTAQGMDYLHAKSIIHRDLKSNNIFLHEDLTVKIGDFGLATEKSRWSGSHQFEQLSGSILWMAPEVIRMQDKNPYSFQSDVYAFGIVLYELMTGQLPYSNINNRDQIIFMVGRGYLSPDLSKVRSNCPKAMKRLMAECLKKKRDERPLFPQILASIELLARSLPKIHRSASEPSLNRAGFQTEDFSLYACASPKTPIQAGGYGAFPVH
# Summary of the method: as §7
# [4] = target: B-Raf (Homo sapiens, UniProt P15056); assay: B-Raf kinase activity assay (AlphaScreen, biotin-MEK1 substrate); details: 100 μM ATP, 100 nM biotin-MEK1, 45 minutes at room temperature; read-out: Biochemical activity (IC50 μM) B-Raf
# Sequence of B-Raf (P15056 whole entry): as the sequence (P15056 whole entry V600E) above, with E600V counted along it
# Summary of the method: as §7
# [5] = system: A375 melanoma (B-Raf V600E mutation); assay: A375 cell growth inhibition (ATPlite luminescence); assay type: cell-based; details: Homo sapiens, A-375, 72 h, A375 cells, incubated 3 days with compound
# Procedure: as §1, §2, §3, §4, §5, §6
# [6] = target: CYP2C9 (Homo sapiens, UniProt P11712); assay: CYP2C9 inhibition (fluorescent substrate MFC); assay type: in vitro ADME; details: read-out: Cyp IC50 (μM) 2C9
# Sequence of CYP2C9 (P11712 whole entry): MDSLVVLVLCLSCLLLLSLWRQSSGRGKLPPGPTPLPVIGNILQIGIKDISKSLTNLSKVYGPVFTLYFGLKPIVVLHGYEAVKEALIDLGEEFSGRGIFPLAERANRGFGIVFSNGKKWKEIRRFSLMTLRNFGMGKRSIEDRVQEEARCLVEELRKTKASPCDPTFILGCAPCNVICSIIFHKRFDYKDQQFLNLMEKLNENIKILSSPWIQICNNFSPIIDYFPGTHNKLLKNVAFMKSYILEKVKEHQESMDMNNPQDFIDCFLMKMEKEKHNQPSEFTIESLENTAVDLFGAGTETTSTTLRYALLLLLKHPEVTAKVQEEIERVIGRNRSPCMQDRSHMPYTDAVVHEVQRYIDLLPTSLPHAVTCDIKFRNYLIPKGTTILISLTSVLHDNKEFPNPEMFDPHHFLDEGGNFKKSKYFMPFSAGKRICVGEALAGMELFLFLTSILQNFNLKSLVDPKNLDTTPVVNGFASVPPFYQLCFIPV
# Procedure: (§8) CYP (Cytochrome P450) enzymes are the major drug metabolizing enzymes present in the liver. The inhibition of CYP enzyme activity (IC50) for each of CYP1A2, CYP2C19, CYP2C9, CYP2D6, CYP3A4(BFC) and CYP3A4(BQ) is determined for compounds, where inhibition of metabolism of a known substrate leads to a decrease in the fluorescence of the metabolized product. The fluorescence of the product is monitored as a function of compound concentration. Compounds are dissolved in dimethyl sulfoxide to a concentration of 100 mM. These are diluted […], into 82 μL of acetonitrile. An 11 μL aliquot of this solution is then added to 204 μL of cofactor mix (1.3% NADPH Regeneration system Solution A, 1.04% NADPH Regeneration system Solution B from BD Biosciences, 5% acetonitrile and 0.05% dimethyl sulfoxide). These are then serially diluted 1:1 (160 μL to 160 μL co-factor mix) for a total of 10 points. A 10 μL aliquot of this final mixture is dispensed into 384 well assay plates and incubated for 10 minutes at 37° C. Enzyme and substrate mix (10 μL; 0.5 pmol CYP1A2/5 μM CEC; 1.0 pmol CYP2C9/75 μM MFC; 0.5 pmol CYP2C19/25 μM CEC; 1.5 pmol CYP2D6/1.5 μM AMMC; 1.0 pmol CYP3A4/50 μM BFC; or 1.0 pmol CYP3A4/40 μM BQ) is added to these assay plates. Assay plates are incubated at 37° C. (CYP1A2-15 min; CYP2C9-45 min; CYP2C19, 2D6 and 3A4-30 min) and read in a Tecan Safire 2 plate reader (CYP1A2, 2C19 and 3A4 409 ex/460 em; CYP2C9 and 2D6 409 ex/530 em). The signal versus compound concentration is used to determine the IC50. The enzymes and substrates for this assay are obtained from BD Biosciences.
# [7] = target: CYP3A4(BQ) (Homo sapiens, UniProt P08684); assay: CYP3A4 inhibition (substrate BQ); assay type: in vitro ADME; details: read-out: Cyp IC50 (μM) 3A4(BQ)
# Sequence of CYP3A4(BQ) (P08684 whole entry): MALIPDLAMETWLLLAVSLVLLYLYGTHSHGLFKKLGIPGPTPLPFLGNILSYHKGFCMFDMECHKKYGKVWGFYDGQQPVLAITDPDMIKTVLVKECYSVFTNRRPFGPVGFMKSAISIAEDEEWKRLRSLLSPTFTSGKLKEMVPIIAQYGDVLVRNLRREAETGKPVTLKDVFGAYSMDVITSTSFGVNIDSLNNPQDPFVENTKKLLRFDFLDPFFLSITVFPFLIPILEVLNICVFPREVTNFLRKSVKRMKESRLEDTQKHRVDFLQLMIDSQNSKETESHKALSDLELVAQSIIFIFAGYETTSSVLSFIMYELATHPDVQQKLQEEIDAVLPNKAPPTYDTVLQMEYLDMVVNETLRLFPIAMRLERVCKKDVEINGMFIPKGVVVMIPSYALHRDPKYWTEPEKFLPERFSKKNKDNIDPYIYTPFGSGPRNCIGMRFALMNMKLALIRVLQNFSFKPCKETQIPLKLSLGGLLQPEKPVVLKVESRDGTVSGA
# Procedure: as §8
# [8] = target: CYP3A4(BFC) (Homo sapiens, UniProt P08684); assay: CYP3A4 inhibition (substrate BFC); assay type: in vitro ADME; details: read-out: Cyp IC50 (μM) 3A4(BFC)
# Sequence of CYP3A4(BFC) (P08684 whole entry): as above
# Procedure: as §8
# [9] = target: T1, CYP1A2 (Homo sapiens, UniProt P05177); assay: CYP1A2 inhibition (fluorescent substrate CEC); assay type: in vitro ADME; details: read-out: Cyp IC50 (μM) 1A2
# T1 sequence (P05177 1-516): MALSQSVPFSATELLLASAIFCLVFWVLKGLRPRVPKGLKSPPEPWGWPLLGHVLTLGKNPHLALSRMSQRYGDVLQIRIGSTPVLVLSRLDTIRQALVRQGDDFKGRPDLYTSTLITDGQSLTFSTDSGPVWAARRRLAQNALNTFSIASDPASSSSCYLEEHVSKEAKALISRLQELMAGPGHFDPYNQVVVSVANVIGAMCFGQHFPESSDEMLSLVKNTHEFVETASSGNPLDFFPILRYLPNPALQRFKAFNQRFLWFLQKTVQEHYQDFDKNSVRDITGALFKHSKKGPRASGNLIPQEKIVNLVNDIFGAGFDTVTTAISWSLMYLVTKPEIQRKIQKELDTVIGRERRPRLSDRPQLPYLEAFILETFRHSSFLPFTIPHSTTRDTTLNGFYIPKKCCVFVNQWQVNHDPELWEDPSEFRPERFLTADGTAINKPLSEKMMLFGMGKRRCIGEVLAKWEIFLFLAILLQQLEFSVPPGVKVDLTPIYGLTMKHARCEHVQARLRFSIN
# Procedure: as §8
# [10] = target: CYP2C19 (Homo sapiens, UniProt P33261); assay: CYP2C19 inhibition (fluorescent substrate CEC); assay type: in vitro ADME; details: read-out: Cyp IC50 (μM) 2C19
# Sequence of CYP2C19 (P33261 whole entry): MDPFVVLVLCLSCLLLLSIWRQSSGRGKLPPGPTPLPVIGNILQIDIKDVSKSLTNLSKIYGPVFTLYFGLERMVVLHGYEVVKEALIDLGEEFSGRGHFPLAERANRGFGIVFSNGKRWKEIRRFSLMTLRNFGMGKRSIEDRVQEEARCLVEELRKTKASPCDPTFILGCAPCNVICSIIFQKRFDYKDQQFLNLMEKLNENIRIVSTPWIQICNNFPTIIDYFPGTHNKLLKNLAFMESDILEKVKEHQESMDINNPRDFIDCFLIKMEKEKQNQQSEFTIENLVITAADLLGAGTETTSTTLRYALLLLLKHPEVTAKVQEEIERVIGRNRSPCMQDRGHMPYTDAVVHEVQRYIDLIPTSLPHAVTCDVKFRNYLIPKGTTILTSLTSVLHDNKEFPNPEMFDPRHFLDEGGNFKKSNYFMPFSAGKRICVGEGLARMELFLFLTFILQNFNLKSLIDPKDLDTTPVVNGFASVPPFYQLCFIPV
# Procedure: as §8
# [11] = target: CYP2D6 (Homo sapiens, UniProt P10635); assay: CYP2D6 inhibition (fluorescent substrate AMMC); assay type: in vitro ADME; details: read-out: Cyp IC50 (μM) 2D6
# Sequence of CYP2D6 (P10635 whole entry): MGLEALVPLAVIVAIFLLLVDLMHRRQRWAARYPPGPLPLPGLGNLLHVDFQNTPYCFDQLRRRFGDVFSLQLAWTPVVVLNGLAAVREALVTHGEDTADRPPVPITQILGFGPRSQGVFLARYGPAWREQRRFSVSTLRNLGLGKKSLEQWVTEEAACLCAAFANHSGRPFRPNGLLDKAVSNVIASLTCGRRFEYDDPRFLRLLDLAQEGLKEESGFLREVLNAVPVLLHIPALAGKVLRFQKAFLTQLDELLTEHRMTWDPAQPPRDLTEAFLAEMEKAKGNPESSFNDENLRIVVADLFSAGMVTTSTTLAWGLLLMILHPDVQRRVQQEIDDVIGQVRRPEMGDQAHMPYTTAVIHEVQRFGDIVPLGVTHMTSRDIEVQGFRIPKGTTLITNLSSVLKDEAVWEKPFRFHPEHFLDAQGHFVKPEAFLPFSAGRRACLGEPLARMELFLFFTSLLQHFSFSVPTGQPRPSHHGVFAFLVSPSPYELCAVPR
# Procedure: as §8
SMILES,IC50 [1],IC50 [2],IC50 [3],IC50 [4],IC50 [5],IC50 [6],IC50 [7],IC50 [8],IC50 [9],IC50 [10],IC50 [11]
"CCCS(=O)(=O)Nc1ccc(F)c(C(=O)c2c[nH]c3ncc(-c4cnc(-n5ccccc5=O)cn4)cc23)c1F [P-1600, Propane-1-sulfonic acid (2,4-difluoro-3-{5-[5-(2-oxo-2H-pyridin-1-yl)-pyrazin-2-yl]-1H-pyrrolo[2,3-b]pyridine-3-carbonyl}-phenyl)-amide]",< 1 µM,< 0.1 µM,< 0.1 µM,< 0.1 µM,> 1 µM,,,,,,
"COc1ccc(-c2cnc3[nH]cc(C(=O)c4c(F)ccc(NS(=O)(=O)c5cc(F)ccc5F)c4F)c3c2)cn1 [P-1404, N-{2,4-Difluoro-3-[5-(6-methoxy-pyridin-3-yl)-1H-pyrrolo[2,3-b]pyridine-3-carbonyl]-phenyl}-2,5-difluoro-benzenesulfonamide]",,< 0.1 µM,< 0.1 µM,< 0.1 µM,,> 10 µM,> 10 µM,> 10 µM,> 10 µM,> 10 µM,> 10 µM
